Like-named read-outs stand apart in the source and are kept apart here.
Legend:
Type in all cases: binding
HLA-A*02:01 = HLA-A*02:01 (Homo sapiens, UniProt P04439, D140Y/D185E/D98H/E176V/E277Q/G131W/G231S/I119V/I121R/I166T/I218V/L300P/L318F/N151K/N90K/P208A/P217A/Q86G/Q94H/R138H/R169H/T345S)
HLA-A*24:02 = HLA-A*24:02 (Homo sapiens, UniProt P04439, D101N/D140Y/D185E/E176V/E190D/F33S/G103R/G107R/I119L/I121M/I306V/K335N/L105A/L180Q/L300P/N151K/N90K/Q86E/Q94H/R106L/R138H/R89G/T104I/T345S/V100E/W191G/Y123F)
HLA-A*30:01 = HLA-A*30:01 (Homo sapiens, UniProt P04439, D140H/D185E/E176W/F33S/G80R/H175R/K168Q/R138E/R41S); conditions: duplicated experiments, positive binder >40%
HLA-A*30:02 [1] = biological target: T1, HLA-A*30:02 (Homo sapiens, UniProt P04439, D101N/D140H/D185E/E176R/F33S/G80R/H175R/K168Q/Q94H/R138E/R41S/V100E); conditions: duplicated experiments, positive binder >40%
HLA-A*30:02 [2] = biological target: T1, HLA-A*30:02
HLA-A*30:02 [3] = biological target: T1, HLA-A*30:02; conditions: time points 0-8 h
HLA-A*68:01 = HLA-A*68:01 (Homo sapiens, UniProt P04439, A269V/D185E/E176V/E277Q/E87N/F33Y/G231S/I121M/I166T/I218V/L180W/L300P/L318F/N151K/P208A/P217A/Q86R/R169H/T345S); conditions: duplicated experiments, positive binder >40%
HLA-B*07:02 = HLA-B*07:02 (Homo sapiens, UniProt P01889); conditions: percent relative the binding of positive control peptide […]; duplicated experiments; positive binder >40%
HLA-B*58:01 = HLA-B*58:01 (Homo sapiens, UniProt P01889, A329T/C349S/D201E/D98Y/E176V/E187L/E204Q/E69T/G107R/I218V/I90N/K202T/L105A/L119I/N104I/N87E/Q89R/Q94S/R106L/R155S/R180L/R86G/S101N/S121R/S35A/S48A/T118I/V127L/V306I/V36M/Y140S/Y91M); conditions: duplicated experiments, positive binder >40%
HLA-C*07:01 = HLA-C*07:01 (Homo sapiens, UniProt P10321, K90N/S123Y); conditions: duplicated experiments, positive binder >40%
[4] = percent relative the binding of positive control peptide FLPSDFFPSV, plate-bound monomer 0.5 µg/ml, duplicated experiments, positive binder >40%
[5] = percent relative the binding of positive control peptide RYLKDQQLL, duplicated experiments, positive binder >40%
[6] = percent relative the binding of positive control peptide KTKDIVNGL
[7] = percent relative the binding of positive control peptide KIQNFRVYY
[8] = percent relative the binding of positive control peptide KTGGPIYKR
[9] = percent relative the binding of positive control peptide IAMESIVIW
[10] = percent relative the binding of positive control peptide KYFDEHYEY
[11] = percent relative the binding of positive control peptide […]
[12] = percent relative the binding of positive control peptide […], plate-bound monomer 0.5 µg/ml, duplicated experiments, positive binder >40%
[13] = percent relative the binding of positive control peptide […], duplicated experiments, positive binder >40%

Row | Substance | Bind A*02:01 (HLA-A*02:01; [4]) | Bind A*24:02 (HLA-A*24:02; [5]) | Bind A*30:01 (HLA-A*30:01; [6]) | Bind A*30:02 (HLA-A*30:02 [1]; [7]) | Aff A*30:02 (ED50) (HLA-A*30:02 [2]; peptide titrated 10−4 to 10−9 M) | O-rate A*30:02 (t1/2) (HLA-A*30:02 [3]) | Bind A*68:01 (HLA-A*68:01; [8]) | Bind B*07:02 (HLA-B*07:02) | Bind B*58:01 (HLA-B*58:01; [9]) | Bind C*07:01 (HLA-C*07:01; [10]) | Bind A*30:02 (HLA-A*30:02 [1]; [11]) | Aff A*30:02 (ED50) (HLA-A*30:02 [2]) | Bind A*30:01 (HLA-A*30:01; [11]) | Bind A*02:01 (HLA-A*02:01; [12]) | Bind A*24:02 (HLA-A*24:02; [13]) | Bind A*68:01 (HLA-A*68:01; [11]) | Bind B*58:01 (HLA-B*58:01; [11]) | Bind C*07:01 (HLA-C*07:01; [11]) | Bind A*24:02 (HLA-A*24:02) | Bind A*02:01 (HLA-A*02:01)
1 | TATELNNAL [Rv3875_61–69] | 11% | 15% | 4% | 106% | 9 nM | 156 min | 13% | 12% | 0% | 5% | – | – | – | – | – | – | – | – | – | –
2 | DHAGDMAGY [Rv0288_13–21m1] | – | – | – | – | – | 18 min | – | – | – | – | 141% | 10 nM | – | – | – | – | – | – | – | –
3 | LVRAYHSMS [Rv0288_65–73m1] | – | – | – | – | – | 54 min | – | – | – | – | 30% | 10 nM | 7% | – | – | – | – | – | – | –
4 | TMLGHAGDM [Rv0288_10–18m1] | – | – | – | – | – | 36 min | – | – | – | – | 99% | 5000 nM | – | 10% | 4% | – | – | – | – | –
5 | VYCGNGTPN | – | – | – | – | – | – | – | 3% | – | – | 80% | – | 8% | 0% | 11% | 4% | 15% | 59% | – | –
6 | GLSMAGSSA | – | – | – | – | – | – | – | 31% | – | – | 0% | – | 0% | 75% | 0% | 0% | 0% | 0% | – | –
7 | ELPQW LSAN | – | – | – | – | – | – | – | 16% | – | – | 0% | – | 20% | 15% | 56% | 31% | 0% | 0% | – | –
8 | ELGGANIPA | – | – | – | – | – | – | – | 0% | – | – | 0% | – | 0% | 47% | 0% | 0% | 0% | 0% | – | –
9 | DINTPAFEW | – | – | – | – | – | – | – | 9% | – | – | 0% | – | 7% | 0% | 56% | 3% | 58% | 10% | – | –
10 | NT RLW V Y CG | – | – | – | – | – | – | – | 0% | – | – | 49% | – | 27% | 0% | 0% | 0% | 0% | 0% | – | –
11 | AIQGNVTSI [Rv3875_17-25] | 45% | 9% | 0% | 49% | – | – | 29% | 4% | 21% | 14% | – | – | – | – | – | – | – | – | – | –
12 | FIYAGSLSA | – | – | – | – | – | – | – | 70% | – | – | 21% | – | 0% | 79% | 11% | 38% | 2% | 35% | – | –
13 | YYQSGLSIV | – | – | – | – | – | – | – | 0% | – | – | 37% | – | 29% | 98% | – | 5% | 0% | 25% | 130 | –
14 | PSQGMGPSL | – | – | – | – | – | – | – | 8% | – | – | 16% | – | 21% | 39% | 56% | 0% | 0% | 29% | – | –
15 | SFYSDW YSP | – | – | – | – | – | – | – | 0% | – | – | 77% | – | 0% | 7% | 0% | 0% | 0% | 0% | – | –
16 | GMGPSLIGL | – | – | – | – | – | – | – | 5% | – | – | 46% | – | 16% | 84% | 53% | 0% | 9% | 35% | – | –
17 | LSIVMPVGG | – | – | – | – | – | – | – | 0% | – | – | 46% | – | 0% | 33% | 0% | 0% | 29% | 0% | – | –
18 | NFPPNGTHS | – | – | – | – | – | – | – | 0% | – | – | 43% | – | 11% | 14% | 0% | 0% | 26% | 0% | – | –
19 | SLSALLDPS | – | – | – | – | – | – | – | 1% | – | – | 3% | – | 2% | 57% | 4% | 0% | 18% | 11% | – | –
20 | AYHSMSSTH [Rv0288_68–76m1] | – | – | – | – | – | 30 min | – | – | – | – | 70% | 200 nM | – | – | – | – | – | – | – | –
21 | THSWEYWGA | – | – | – | – | – | – | – | 2% | – | – | 67% | – | 0% | 21% | 0% | 57% | 0% | 6% | – | –
22 | QLNAMKGDL | – | – | – | – | – | – | – | 49% | – | – | 0% | – | 10% | 71% | 60% | 0% | 0% | 17% | – | –
23 | SPAVYLLDG | – | – | – | – | – | – | – | 0% | – | – | 0% | – | 0% | 0% | 49% | 0% | 0% | 1% | – | –
24 | QQWNFAGIE [Rv3875_4–12] | 45% | 0% | 0% | 39% | – | – | 15% | 1% | 0% | 11% | – | – | – | – | – | – | – | – | – | –
25 | VMPVGGQSS | – | – | – | – | – | – | – | 0% | – | – | 12% | – | 0% | 60% | 0% | 0% | 0% | 0% | – | –
26 | SLIGLAMGD | – | – | – | – | – | – | – | 3% | – | – | 47% | – | 0% | – | 0% | 0% | 0% | 0% | – | 57
27 | T RLW V Y CG N | – | – | – | – | – | – | – | 0% | – | – | 33% | – | 45% | 0% | 0% | 5% | 0% | 15% | – | –
28 | GPSLIGLAM | – | – | – | – | – | – | – | 85% | – | – | 0% | – | 0% | 11% | 0% | 6% | 18% | 0% | – | –
29 | ATELNNALQ [Rv3875_62–70] | 8% | 13% | 16% | 45% | – | – | 5% | 12% | 4% | 8% | – | – | – | – | – | – | – | – | – | –
